According to US4283389A, “Novel antibiotic, BN-183B substance” (Meiji Seika Kaisha Ltd., priority 1978, dated 1981):

Experiments:
[1] = test system: Herpes simplex virus type II 196; test: anti-Herpes virus activity in mice; format: in vivo
Herpes virus type II 196 = test: antiviral activity by tissue culture test; format: cell-based; details: dose 3.9 mcg/m
lymphoid leukemia L-1210 = test: increase in life span of mice transplanted intraperitoneally with L-1210; format: in vivo
Method: (§1) Lymphocytic leukemia P-388 or lymphoid leukemia L-1210 cells were transplanted intraperitoneally in an amount of 1×10^6 per mouse into CDF1 mice or BDF1 mice (about 5 weeks old, body weight 20±1 g), five in one group. Twenty-four hours after the transplantation of the tumor, a solution of the BN-183B substance in distilled water for injection was administered intraperitoneally to the mice once a day for three successive days. The percent increase in life span (i.e., ILS) was measured by comparing the average number of days of survival of each treated group with that of a control group to which the BN-183B substance was not administered.

[2] = test system: Infectious pancreatic necrosis (IPN) virus of rainbow trout; test: antiviral activity by tissue culture test; format: cell-based; details: dose 0.5 mcg/m
[3] = test system: DNA-type and RNA-type viruses; test: antiviral activity by tissue culture test (overall); format: cell-based; details: overall result in words
[4] = test system: Lymphocytic leukemia P-388; test: increase in life span of mice transplanted intraperitoneally with P-388; format: in vivo
Method: as §1

solubility = format: physicochemical; details: hydrochloride
[5] = test system: Infectious hematopoietic necrosis (IHN) virus of rainbow trout; test: antiviral activity by tissue culture test; format: cell-based; details: dose 0.5 mcg/m
Influenza virus A0/PR-8 = format: cell-based; details: dose 3.9 mcg/m
[6] = test system: Escherichia coli K-12 IAM 1264; test: minimum growth inhibitory concentration; format: cell-based; details: nutrient agar
From the text: (§2) Table 1 below summarizes the minimum growth inhibitory concentrations of the BN-183B substance on various microorganisms.
(§3) The culture media used were a nutrient agar (a product of Difco).

[7] = test system: Staphylococcus epidermidis ATCC14990; test: minimum growth inhibitory concentration; format: cell-based; details: nutrient agar
From the text: as §2, §3

[8] = test system: Staphylococcus aureus 209P JC-1; test: minimum growth inhibitory concentration; format: cell-based; details: nutrient agar
From the text: as §2, §3

[9] = test system: Escherichia coli NIHJ JC-2; test: minimum growth inhibitory concentration; format: cell-based; details: nutrient agar
From the text: as §2, §3

[10] = test system: Staphylococcus aureus Smith S-424; test: minimum growth inhibitory concentration; format: cell-based; details: nutrient agar
From the text: as §2, §3

[11] = test system: Staphylococcus faecalis ATCC8043; test: minimum growth inhibitory concentration; format: cell-based; details: nutrient agar
From the text: as §2, §3

Proteus vulgaris OX19 = test: minimum growth inhibitory concentration; format: cell-based; details: nutrient agar
From the text: as §2, §3

[12] = test system: Bacillus subtilis ATCC 6633; test: paper disc method, inhibitory zone; format: cell-based; details: pure product, 20 to 500 mcg/ml
Method: In assaying the BN-183B substance, its anti-bacterial activity is utilized and Bacillus subtilis ATCC 6633 is used as an assaying strain. A mixture of 2% of mycin assay agar (a product of Kyoei Seiyaku K.K.) and 0.5% of bacto-agar (a product of Difco) is used as an assaying culture medium. When BN-183B substance (pure product) is assayed under the above conditions, the relation between the logarithm of the concentration within the range of 20 to 500 mcg/ml and the diameter of the inhibitory zone is linear, and an inhibitory zone having a diameter of 16 to 29 mm is given corresponding to the above concentration range (paper disc method).

LD50 in mice = format: in vivo
[13] = test system: Gram-positive and Gram-negative bacteria; test: growth inhibition of various microorganisms (overall); format: cell-based; details: overall result in words
From the text: as §2, §3

[14] = test system: Newcastle disease virus Miyadera; format: cell-based; details: dose 3.9 mcg/m
Vaccinia virus Lister = format: cell-based; details: dose 3.9 mcg/m

What does the source list for O=c1[nH]c(=O)n([C@H]2C[C@H](O)[C@@H](CO)O2)cc1I [IUDR, 5-iodo-2'-deoxyuridine, reference compound]?
ET50 (number of days of 50% survival) ([1]; 100 mg/kg i.p.): 8.50 days; Cumulative Mortality ([1]; 100 mg/kg i.p., day 5 from inoculation): 0%; Cumulative Mortality ([1]; 100 mg/kg i.p., day 6 from inoculation): 0%; Cumulative Mortality ([1]; 100 mg/kg i.p., day 7 from inoculation): 30%; Cumulative Mortality ([1]; 100 mg/kg i.p., day 8 from inoculation): 40%; Cumulative Mortality ([1]; 100 mg/kg i.p., day 9 from inoculation): 60%; Cumulative Mortality ([1]; 100 mg/kg i.p., day 10 from inoculation): 70%; Cumulative Mortality ([1]; 100 mg/kg i.p., day 11 from inoculation): 70%; Cumulative Mortality ([1]; 100 mg/kg i.p., day 12 from inoculation): 70%; Cumulative Mortality ([1]; 100 mg/kg i.p., day 13 from inoculation): 70%; Cumulative Mortality ([1]; 100 mg/kg i.p., day 14 from inoculation): 70%

With C[C@H](N)C(=O)N[C@@H]1[C@H]2C(=C(O)C[C@@H](O)[C@@H]2O)C(=O)O[C@]1(C)C(Cl)Cl [BN-183B substance] as the compound, how does the “Difference of Log TCID50/ml from the Control” value (“Difference of Log TCID50/ml” for short) (Herpes virus type II 196) read?
Its value is 3.83 Log TCID50/ml.

And the “Percent Increase in Life Span” value (lymphoid leukemia L-1210; L-1210, 0.25 mg/kg i.p. once a day for three days)?
Its value is 10.8%.

What about the “Percent Increase in Life Span” value (lymphoid leukemia L-1210; L-1210, 0.5 mg/kg i.p. once a day for three days) of the same compound?
The value was 35.1%.

What about the “Percent Increase in Life Span” value (lymphoid leukemia L-1210; L-1210, 1 mg/kg i.p. once a day for three days) of the same compound?
The value was 32.4%.

What about the “Percent Increase in Life Span” value (lymphoid leukemia L-1210; L-1210, 2 mg/kg i.p. once a day for three days) of the same compound?
Its value is 45.9%.

What about the “Percent Increase in Life Span” value (lymphoid leukemia L-1210; L-1210, 4 mg/kg i.p. once a day for three days) of the same compound?
The value was 59.5%.

And the “Difference of Log TCID50/ml” value [2]?
The value was 6.801 Log TCID50/ml.

And the “activity against DNA-type and RNA-type viruses” value [3]?
The value was “very strong activity”.

What about the “Percent Increase in Life Span” value ([4]; P-388, 0.25 mg/kg i.p. once a day for three days) of the same compound?
The value was 32.1%.

And the “Percent Increase in Life Span” value ([4]; P-388, 0.5 mg/kg i.p. once a day for three days)?
The value was 41.5%.

And the “Percent Increase in Life Span” value ([4]; P-388, 1 mg/kg i.p. once a day for three days)?
The value was 54.7%.

And the “Percent Increase in Life Span” value ([4]; P-388, 2 mg/kg i.p. once a day for three days)?
Its value is 79.2%.

And the “Percent Increase in Life Span” value ([4]; P-388, 4 mg/kg i.p. once a day for three days)?
The value was 66.0%.

What about the Solubility in acetone (solubility; acetone) of the same compound?
The Solubility in acetone was “scarcely soluble”.

What about the Solubility in chloroform (solubility; chloroform) of the same compound?
Its Solubility in chloroform is “scarcely soluble”.

And the “Solubility in ethyl acetate” value (solubility; ethyl acetate)?
Its value is “scarcely soluble”.

What about the Solubility in methanol (solubility; methanol) of the same compound?
Its Solubility in methanol is “slightly soluble”.

And the Solubility in water (solubility; water)?
The Solubility in water was “Very soluble”.

What about the “Difference of Log TCID50/ml” value [5] of the same compound?
Its value is 3.000 Log TCID50/ml.

And the “Difference of Log TCID50/ml” value (Influenza virus A0/PR-8)?
The value was 2.50.

What about the “Minimum Growth Inhibitory Concentration” value [6] of the same compound?
The value was 0.78 µg/mL.

What about the “Minimum Growth Inhibitory Concentration” value [7] of the same compound?
Its value is 0.20 µg/mL.

What about the “Minimum Growth Inhibitory Concentration” value [8] of the same compound?
The value was 0.20 µg/mL.

What about the “Minimum Growth Inhibitory Concentration” value [9] of the same compound?
The value was 1.56 µg/mL.

And the “Minimum Growth Inhibitory Concentration” value [10]?
The value was 0.20 µg/mL.

What about the “Minimum Growth Inhibitory Concentration” value [11] of the same compound?
The value was 0.39 µg/mL.

And the “Minimum Growth Inhibitory Concentration” value (Proteus vulgaris OX19)?
Its value is 6.25 µg/mL.

And the “diameter of the inhibitory zone” value [12]?
The value was 16 to 29 mm.

And the LD50 (LD50 in mice; intramuscular)?
Its LD50 is 4.1 mg/kg.

And the LD50 (LD50 in mice; intraperitoneal)?
Its LD50 is 4.3 mg/kg.

What about the LD50 (LD50 in mice; intravenous) of the same compound?
Its LD50 is 4.1 mg/kg.

And the LD50 (LD50 in mice; oral)?
Its LD50 is 50 mg/kg.

And the LD50 (LD50 in mice; subcutaneous)?
The LD50 was 6.0 mg/kg.

And the “inhibitory activity on Gram-positive and Gram-negative bacteria” value [13]?
The value was “strong inhibitory activity”.

What about the “Difference of Log TCID50/ml” value [14] of the same compound?
The value was 6.00 Log TCID50/ml.

And the “anti-Herpes virus effect compared with IUDR” value ([1]; 1.25 mg/kg BN-183B vs 100 mg/kg IUDR, i.p.)?
The value was “the same effect as in the group to which 100 mg/kg of IUDR was administered”.

What about the “ET50 (number of days of 50% survival)” value ([1]; 1.25 mg/kg i.p.) of the same compound?
The value was 8.38 days.

And the “Cumulative Mortality” value ([1]; 1.25 mg/kg i.p., day 5 from inoculation)?
Its value is 0%.

What about the “Cumulative Mortality” value ([1]; 1.25 mg/kg i.p., day 6 from inoculation) of the same compound?
Its value is 20%.

And the “Cumulative Mortality” value ([1]; 1.25 mg/kg i.p., day 7 from inoculation)?
Its value is 20%.

And the “Cumulative Mortality” value ([1]; 1.25 mg/kg i.p., day 8 from inoculation)?
Its value is 60%.

And the “Cumulative Mortality” value ([1]; 1.25 mg/kg i.p., day 9 from inoculation)?
Its value is 70%.

And the “Cumulative Mortality” value ([1]; 1.25 mg/kg i.p., day 10 from inoculation)?
Its value is 70%.

What about the “Cumulative Mortality” value ([1]; 1.25 mg/kg i.p., day 11 from inoculation) of the same compound?
Its value is 80%.

And the “Cumulative Mortality” value ([1]; 1.25 mg/kg i.p., day 12 from inoculation)?
Its value is 90%.

What about the “Cumulative Mortality” value ([1]; 1.25 mg/kg i.p., day 13 from inoculation) of the same compound?
Its value is 90%.

And the “Cumulative Mortality” value ([1]; 1.25 mg/kg i.p., day 14 from inoculation)?
The value was 90%.

What about the “ET50 (number of days of 50% survival)” value ([1]; 2.5 mg/kg i.p.) of the same compound?
The value was 7.65 days.

And the “Cumulative Mortality” value ([1]; 2.5 mg/kg i.p., day 5 from inoculation)?
The value was 0%.

What about the “Cumulative Mortality” value ([1]; 2.5 mg/kg i.p., day 6 from inoculation) of the same compound?
Its value is 10%.

What about the “Cumulative Mortality” value ([1]; 2.5 mg/kg i.p., day 7 from inoculation) of the same compound?
The value was 20%.

What about the “Cumulative Mortality” value ([1]; 2.5 mg/kg i.p., day 8 from inoculation) of the same compound?
The value was 70%.

And the “Cumulative Mortality” value ([1]; 2.5 mg/kg i.p., day 9 from inoculation)?
Its value is 80%.

What about the “Cumulative Mortality” value ([1]; 2.5 mg/kg i.p., day 10 from inoculation) of the same compound?
The value was 100%.

What about the “Difference of Log TCID50/ml” value (Vaccinia virus Lister) of the same compound?
The value was under 3.00 Log TCID50/ml.
